Results published in ChEMBL document CHEMBL1154291, “Synthesis and SAR of 2-phenyl-1-sulfonylaminocyclopropane carboxylates as ADAMTS-5 (Aggrecanase-2) inhibitors” (Bioorg Med Chem Lett, 2009).

Target: T1, A disintegrin and metalloproteinase with thrombospondin motifs 5 (Homo sapiens, UniProt Q9UNA0)
T1 sequence (Q9UNA0 whole entry): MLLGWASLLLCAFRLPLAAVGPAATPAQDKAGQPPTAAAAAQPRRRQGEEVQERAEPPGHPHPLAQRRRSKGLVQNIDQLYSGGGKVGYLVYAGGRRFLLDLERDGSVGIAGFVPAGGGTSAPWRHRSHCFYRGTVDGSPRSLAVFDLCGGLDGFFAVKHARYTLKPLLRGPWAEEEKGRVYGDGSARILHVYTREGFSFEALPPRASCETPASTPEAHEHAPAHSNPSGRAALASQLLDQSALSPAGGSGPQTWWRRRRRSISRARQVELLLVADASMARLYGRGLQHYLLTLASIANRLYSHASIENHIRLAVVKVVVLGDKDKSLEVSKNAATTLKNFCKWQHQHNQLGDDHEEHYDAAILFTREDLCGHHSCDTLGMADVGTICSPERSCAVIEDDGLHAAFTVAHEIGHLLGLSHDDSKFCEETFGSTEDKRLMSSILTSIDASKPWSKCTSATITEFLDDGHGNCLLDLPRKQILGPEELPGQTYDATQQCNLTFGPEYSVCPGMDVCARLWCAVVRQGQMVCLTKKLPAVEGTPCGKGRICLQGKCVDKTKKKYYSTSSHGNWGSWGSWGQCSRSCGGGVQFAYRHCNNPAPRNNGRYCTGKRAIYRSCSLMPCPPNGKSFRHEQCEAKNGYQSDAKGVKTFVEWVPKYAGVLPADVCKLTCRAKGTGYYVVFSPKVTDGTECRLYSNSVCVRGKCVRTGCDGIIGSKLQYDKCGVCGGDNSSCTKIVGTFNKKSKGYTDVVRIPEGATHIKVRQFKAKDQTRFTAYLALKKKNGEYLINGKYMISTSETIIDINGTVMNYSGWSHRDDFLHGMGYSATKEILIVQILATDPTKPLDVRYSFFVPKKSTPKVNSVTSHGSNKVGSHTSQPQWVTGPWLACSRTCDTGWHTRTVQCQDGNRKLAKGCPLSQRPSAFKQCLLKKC
Assay: Inhibition of ADAMTS5
Conditions: not given
In the case of O=C(O)[C@]1(NS(=O)(=O)c2ccc(-c3ccc(Cl)cn3)s2)C[C@@H]1c1ccccc1, the IC50 is reported as 100 nM.
O=C(O)[C@]1(NS(=O)(=O)c2ccc(-n3cc(Cl)cn3)s2)C[C@@H]1c1ccccc1 gave an IC50 of 80 nM.
With O=C(O)[C@]1(NS(=O)(=O)c2ccc(-c3ccc(Cl)cc3)s2)C[C@@H]1c1ccccc1 the IC50 was 60 nM.
In the case of O=C(O)[C@]1(NS(=O)(=O)c2ccc(-c3cccc(Cl)c3)s2)C[C@@H]1c1ccccc1, the IC50 is reported as 94 nM.
In the case of C[C@@H]1[C@H](c2ccccc2)[C@]1(NS(=O)(=O)c1ccc(-c2ccc(Cl)cc2)s1)C(=O)O, the IC50 is reported as 21 nM.
In the case of C[C@]1(c2ccccc2)C[C@@]1(NS(=O)(=O)c1ccc(-n2cc(Cl)cn2)s1)C(=O)O, the IC50 is reported as 32 nM.
For C[C@@H]1[C@H](C)[C@]1(NS(=O)(=O)c1ccc(-n2cc(Cl)cn2)s1)C(=O)O, the IC50 was 800 nM.
Work on C[C@]1(c2ccccc2)C[C@@]1(NS(=O)(=O)c1ccc(-c2ccc(Cl)cc2)s1)C(=O)O yielded an IC50 of 10 nM.
In the case of O=C(O)[C@@]1(NS(=O)(=O)c2ccc(-c3ccc(Cl)cc3)cc2)C[C@H]1c1ccccc1, the IC50 is reported as 210 nM.
Compound O=C(O)[C@]1(NS(=O)(=O)c2ccc(-c3ccc(Cl)cc3)cc2)C[C@@H]1c1ccccc1 has an IC50 of 84 nM.
For C[C@H]1[C@H](c2ccccc2)[C@]1(NS(=O)(=O)c1ccc(-c2ccc(Cl)cc2)s1)C(=O)O (racemic), the IC50 was 120 nM.
C[C@@H]1[C@H](c2ccccc2)[C@]1(NS(=O)(=O)c1ccc(-n2cc(Cl)cn2)s1)C(=O)O (racemic) gave an IC50 of 7.4 nM.
In the case of CC(C)[C@H]1C[C@@]1(NS(=O)(=O)c1ccc(-n2cc(Cl)cn2)s1)C(=O)O (racemic), the IC50 is reported as 770 nM.
O=C(O)[C@]1(NS(=O)(=O)c2ccc(-n3cc(Cl)cn3)s2)C[C@@H]1C1CCCCC1 (racemic) gave an IC50 of 360 nM.

Test system: not listed separately
Assay: Oral bioavailability in rat
Type: ADME, organism-based
Conditions: in vivo
C[C@@H]1[C@H](c2ccccc2)[C@]1(NS(=O)(=O)c1ccc(-n2cc(Cl)cn2)s1)C(=O)O (racemic) gave a bioavailability of 81%.

Target: T2, A disintegrin and metalloproteinase with thrombospondin motifs 5 (Homo sapiens) (UniProt Q9UNA0)
T2 sequence (whole entry): T1 sequence (Q9UNA0 whole entry)
Assay: Inhibition of ADAMTS5 at 0.3 uM
Conditions: not given
Compound COC(=O)c1cn(CCN([C@@]2(C(=O)O)C[C@@H]2c2ccccc2)S(=O)(=O)c2ccc(-c3ccc(Cl)cc3)cc2)cn1 has an inhibition of 18%.

Target: T2, A disintegrin and metalloproteinase with thrombospondin motifs 5 (Homo sapiens)
Assay: Inhibition of ADAMTS5 at 1 uM
Conditions: not given
With O=C(O)[C@]1(NS(=O)(=O)c2ccc(-c3ccccc3Cl)s2)C[C@@H]1c1ccccc1 the inhibition was 48%.
For CC1(C)C[C@@]1(NS(=O)(=O)c1ccc(-n2cc(Cl)cn2)s1)C(=O)O (racemic), the inhibition was 19.6%.
Compound C[C@H]1C[C@@]1(NS(=O)(=O)c1ccc(-n2cc(Cl)cn2)s1)C(=O)O (racemic) has an inhibition of 3.5%.
O=C(O)[C@]1(NS(=O)(=O)c2ccc(-n3cc(Cl)cn3)s2)CC[C@@H]1c1ccccc1 (racemic) gave an inhibition of -0.84%.
In the case of O=C(O)[C@]1(NS(=O)(=O)c2ccc(-n3cc(Cl)cn3)s2)C[C@@H]1Cc1ccccc1 (racemic), the inhibition is reported as 25%.

Test system: not listed separately
Assay: Half life in rat
Type: ADME, organism-based
Conditions: in vivo
In the case of C[C@@H]1[C@H](c2ccccc2)[C@]1(NS(=O)(=O)c1ccc(-n2cc(Cl)cn2)s1)C(=O)O (racemic), the half-life is reported as 4.5 h.

Target: T3, Interstitial collagenase (Homo sapiens, UniProt P03956)
T3 sequence (P03956 whole entry): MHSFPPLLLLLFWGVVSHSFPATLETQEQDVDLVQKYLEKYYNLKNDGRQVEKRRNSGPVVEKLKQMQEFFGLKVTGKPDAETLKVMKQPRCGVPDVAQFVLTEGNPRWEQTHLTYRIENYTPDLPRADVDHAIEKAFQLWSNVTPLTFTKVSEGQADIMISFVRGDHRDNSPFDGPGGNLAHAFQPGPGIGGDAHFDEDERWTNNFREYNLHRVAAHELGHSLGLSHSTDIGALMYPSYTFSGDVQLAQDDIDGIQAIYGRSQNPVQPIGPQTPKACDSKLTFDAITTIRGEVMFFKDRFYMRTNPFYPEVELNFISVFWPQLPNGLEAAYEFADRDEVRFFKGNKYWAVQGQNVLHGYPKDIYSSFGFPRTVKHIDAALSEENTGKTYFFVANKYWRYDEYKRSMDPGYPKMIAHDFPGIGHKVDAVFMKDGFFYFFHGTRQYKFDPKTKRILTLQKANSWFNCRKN
Assay: Inhibition of MMP-1
Conditions: not given
With C[C@@H]1[C@H](c2ccccc2)[C@]1(NS(=O)(=O)c1ccc(-n2cc(Cl)cn2)s1)C(=O)O (racemic) the IC50 was 180 nM.

Target: Disintegrin and metalloproteinase domain-containing protein 17 (Homo sapiens, UniProt P78536)
Sequence (P78536 whole entry, the tested form may be a part): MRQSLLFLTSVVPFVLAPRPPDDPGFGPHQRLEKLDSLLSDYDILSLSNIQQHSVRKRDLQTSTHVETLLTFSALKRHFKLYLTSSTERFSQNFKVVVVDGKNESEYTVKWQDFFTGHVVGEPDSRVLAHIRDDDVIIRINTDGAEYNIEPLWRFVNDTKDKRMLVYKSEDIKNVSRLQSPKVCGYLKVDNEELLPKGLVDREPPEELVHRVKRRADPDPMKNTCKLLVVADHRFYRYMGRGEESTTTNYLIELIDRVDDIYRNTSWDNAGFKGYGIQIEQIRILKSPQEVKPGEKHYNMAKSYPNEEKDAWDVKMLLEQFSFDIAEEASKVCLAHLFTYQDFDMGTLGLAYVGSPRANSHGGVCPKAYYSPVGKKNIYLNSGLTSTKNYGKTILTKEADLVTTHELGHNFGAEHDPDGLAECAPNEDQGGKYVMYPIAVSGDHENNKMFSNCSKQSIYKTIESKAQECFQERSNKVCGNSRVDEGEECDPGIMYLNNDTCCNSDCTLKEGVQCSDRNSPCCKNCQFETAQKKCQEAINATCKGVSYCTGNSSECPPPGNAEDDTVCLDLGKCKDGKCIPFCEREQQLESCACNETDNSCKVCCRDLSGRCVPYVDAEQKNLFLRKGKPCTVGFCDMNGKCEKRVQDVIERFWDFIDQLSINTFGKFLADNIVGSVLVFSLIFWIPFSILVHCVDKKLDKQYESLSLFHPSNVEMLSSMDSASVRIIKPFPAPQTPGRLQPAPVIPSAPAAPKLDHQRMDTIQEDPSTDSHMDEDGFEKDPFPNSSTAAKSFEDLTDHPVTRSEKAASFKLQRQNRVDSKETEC
Assay: Inhibition of TACE
Conditions: not given
Work on C[C@@H]1[C@H](c2ccccc2)[C@]1(NS(=O)(=O)c1ccc(-n2cc(Cl)cn2)s1)C(=O)O (racemic) yielded an IC50 of 4000 nM.
